According to patent US10112935B2, “Indazolyl thiadiazolamines and related compounds for inhibition of Rho-associated protein kinase and the treatment of disease” (Lycera Corporation, priority 2015, dated 2018):

Legend:
[1] = biological target: GST-tagged human ROCK1 catalytic domain 1-477 (Homo sapiens (Human), UniProt Q13464); assay: Inhibition of Rho-associated protein kinase isoform 1 (LANCE Ultra ULight-CREBtide FRET kinase assay); format: biochemical; conditions: 30 μM was the highest concentration analyzed
Experimental: (§1) Exemplary compounds were tested for ability to inhibit Rho-associated protein kinase isoform 1 (ROCK1) and Rho-associated protein kinase isoform 2 (ROCK2). Assay procedures and results are described below.
(§2) Protein constructs were purified from a baculovirus expression system. The peptide substrate was fluorescent LANCE® Ultra ULight-CREBtide: […] (PerkinElmer, # TRF0107-D). […] After a 90 minute incubation at room temperature on a shaker table, the kinase reaction was stopped by addition of 10 mM EDTA, and phosphorylation of the substrate was detected by adding 1 nM LANCE® Ultra Europium-anti-phospho-CREB (ser133) antibody (PerkinElmer, # TRF0200-D) and incubating for 60 minutes on a shaker at room temperature. The flurorescence resonance energy transfer (FRET) signals were read and analyzed on an Envision™ 2103 Multilabel Reader (Perkin Elmer).

[2] = biological target: GST-tagged human ROCK2 catalytic domain 1-553 (Homo sapiens (Human), UniProt O75116); assay: Inhibition of Rho-associated protein kinase isoform 2 (LANCE Ultra ULight-CREBtide FRET kinase assay); format: biochemical; conditions: for IC50: 30 μM was the highest concentration analyzed; for Selectivity for ROCK2 over ROCK1 (IC50 ROCK1 / IC50 ROCK2): selectivity ROCK2 vs ROCK1
Experimental: as §1, §2

Sequence of GST-tagged human ROCK1 catalytic domain 1-477 (Q13464 1-477): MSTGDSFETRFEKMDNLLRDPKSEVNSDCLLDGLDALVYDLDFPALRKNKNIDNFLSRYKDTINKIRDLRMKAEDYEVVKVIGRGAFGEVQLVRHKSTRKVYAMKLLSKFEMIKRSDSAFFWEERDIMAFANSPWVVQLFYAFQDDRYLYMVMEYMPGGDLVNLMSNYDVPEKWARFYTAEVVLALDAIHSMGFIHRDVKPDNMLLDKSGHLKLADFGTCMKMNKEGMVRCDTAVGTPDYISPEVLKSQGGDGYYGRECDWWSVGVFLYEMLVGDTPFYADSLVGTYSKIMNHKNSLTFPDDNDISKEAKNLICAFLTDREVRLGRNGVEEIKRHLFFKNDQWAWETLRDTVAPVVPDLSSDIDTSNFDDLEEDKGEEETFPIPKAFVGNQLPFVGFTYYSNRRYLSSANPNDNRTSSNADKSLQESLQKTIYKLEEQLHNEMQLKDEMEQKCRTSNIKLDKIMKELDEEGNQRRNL
Sequence of GST-tagged human ROCK2 catalytic domain 1-553 (O75116 1-553): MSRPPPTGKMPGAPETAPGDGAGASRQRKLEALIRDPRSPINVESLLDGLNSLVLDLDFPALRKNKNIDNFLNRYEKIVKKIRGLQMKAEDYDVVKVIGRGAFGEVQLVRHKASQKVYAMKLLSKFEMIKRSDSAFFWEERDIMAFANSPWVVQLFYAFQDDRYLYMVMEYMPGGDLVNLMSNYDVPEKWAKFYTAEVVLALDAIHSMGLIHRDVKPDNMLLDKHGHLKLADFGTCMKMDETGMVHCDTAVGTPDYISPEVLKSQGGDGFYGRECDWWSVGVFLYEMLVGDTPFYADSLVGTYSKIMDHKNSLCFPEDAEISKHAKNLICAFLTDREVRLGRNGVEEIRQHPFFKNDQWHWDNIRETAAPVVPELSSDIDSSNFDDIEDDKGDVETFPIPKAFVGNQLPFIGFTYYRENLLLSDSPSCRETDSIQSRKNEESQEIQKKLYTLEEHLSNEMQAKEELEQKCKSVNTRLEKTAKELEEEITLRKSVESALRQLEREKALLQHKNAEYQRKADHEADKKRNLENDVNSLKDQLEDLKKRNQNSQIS

Compound	IC50 [1]	IC50 [2]	Selectivity for ROCK2 over ROCK1 (IC50 ROCK1 / IC50 ROCK2) [2]
O=C(Cc1ncccn1)Nc1cccc(-c2nnc(Nc3ccc4[nH]ncc4c3Cl)s2)c1 [Example 35AP]	< 1 µM	< 1 µM	<5
O=C(Cc1cccc(C(F)(F)F)n1)Nc1cccc(-c2nnc(Nc3ccc4[nH]ncc4c3Cl)s2)c1 [Example 35AI]	< 1 µM	< 1 µM	>5
CN1CCN(c2cccc(-c3nnc(Nc4ccc5[nH]ncc5c4Cl)s3)c2)C(=O)C1 [Example 42, 1-(3-(5-((4-Chloro-1H-indazol-5-yl)amino)-1,3,4-thiadiazol-2-yl)phenyl)-4-methylpiperazin-2-one]	1 to 15 µM	1 to 15 µM	>5
Cn1ccnc1-c1cccc(-c2nnc(Nc3ccc4[nH]ncc4c3Cl)s2)c1.O=C(O)C(F)(F)F [Example 46E]	> 30 µM	< 1 µM	>100
CC(=O)Nc1cc(CN(C)C)cc(-c2nnc(Nc3ccc4[nH]ncc4c3Cl)s2)c1.O=C(O)C(F)(F)F [Example 48C]	1 to 15 µM	< 1 µM	>5
CCc1c(Nc2nnc(-c3cccc(NC(C)=O)c3)s2)ccc2[nH]ncc12 [Example 75C]	< 1 µM	< 1 µM	>5
Cc1coc(-c2cc(-c3nnc(Nc4ccc5[nH]ncc5c4Cl)s3)ccn2)n1 [Example 40, N-(4-Chloro-1H-indazol-5-yl)-5-(2-(4-methyloxazol-2-yl)pyridin-4-yl)-1,3,4-thiadiazol-2-amine]	< 1 µM	< 1 µM	>5
CS(=O)(=O)Nc1cncc(-c2nnc(Nc3ccc4[nH]ncc4c3)s2)c1 [Example A-18]	1 to 15 µM	1 to 15 µM	<5
Cc1cnn(CC(=O)Nc2cccc(-c3nnc(Nc4ccc5[nH]ncc5c4Cl)s3)c2)c1 [Example 35BI]	1 to 15 µM	< 1 µM	>100
c1cc(-c2nnco2)cc(-c2nnc(Nc3ccc4[nH]ncc4c3)s2)c1 [Example A-6]	> 30 µM	> 30 µM	<5
N#Cc1cccc(-c2nnc(Nc3ccc4[nH]ncc4c3Cl)s2)c1 [Example 35Z]	> 30 µM	< 1 µM	>100
Clc1c(Nc2nnc(-c3cccc(-c4ncco4)c3)s2)ccc2[nH]ncc12 [Example 46O]	> 30 µM	< 1 µM	>100
O=C(O)C(F)(F)F.OCCn1ccnc1-c1cccc(-c2nnc(Nc3ccc4[nH]ncc4c3Cl)s2)c1 [Example 45A, 2-(2-(3-(5-((4-Chloro-1H-indazol-5-yl)amino)-1,3,4-thiadiazol-2-yl)phenyl)-1H-imidazol-1-yl)ethan-1-ol 2,2,2-trifluoroacetic Acid Solvate]	1 to 15 µM	< 1 µM	>75
CC(C)(O)c1ccc(-c2cn3cccc(-c4nnc(Nc5ccc6[nH]ncc6c5Cl)s4)c3n2)cc1 [Example 50F]	< 1 µM	< 1 µM	>5
O=C1Cc2cccc(-c3nnc(Nc4ccc5[nH]ncc5c4Cl)s3)c2N1 [Example 56E]	> 30 µM	< 1 µM	>50

The next lines start with the values.

IC50 [1]	IC50 [2]	Selectivity for ROCK2 over ROCK1 (IC50 ROCK1 / IC50 ROCK2) [2]	Compound
< 1 µM	< 1 µM	>5	CCn1cc(C(=O)Nc2cccc(-c3nnc(Nc4ccc5[nH]ncc5c4)s3)c2)cn1 [Example A-16]
> 30 µM		>75	CC(C)NC(=O)COc1cncc(-c2nnc(Nc3ccc4[nH]ncc4c3)s2)c1 [Example 75L]
> 30 µM	1 to 15 µM	>5	CC(=O)N(C)c1cccc(-c2nnc(Nc3ccc4[nH]ncc4c3Cl)s2)c1 [Example 35AZ]
< 1 µM	< 1 µM	<5	CC(C(=O)Nc1cccc(-c2nnc(Nc3ccc4[nH]ncc4c3Cl)s2)c1)c1ccccn1 (stereo not drawn) [Example 35AH]
> 30 µM	< 1 µM	>100	CC(=O)Nc1cc(-c2nnc(Nc3ccc4[nH]ncc4c3Cl)s2)cc(C(F)(F)F)c1 [Example 48K]
< 1 µM	< 1 µM	>5	c1cc(-c2nnc(Nc3ccc4[nH]ncc4c3)s2)c2nccn2c1 [Example 49, 5-Imidazo[1,2-a]pyridin-8-yl-N-(1H-indazol-5-yl)-1,3,4-thiadiazol-2-amine 2,2,2-trifluoroacetic Acid Solvate]
> 30 µM	> 30 µM	<5	c1cc(-c2cnco2)cc(-c2nnc(Nc3ccc4[nH]ncc4c3)s2)c1 [Example A-26]
> 30 µM	< 1 µM	>100	CC(=O)Nc1cc(CSC(C)=O)cc(-c2nnc(Nc3ccc4[nH]ncc4c3Cl)s2)c1 [Example 47, (S)-(3-Acetamido-5-(5-((4-chloro-1H-indazol-5-yl)amino)-1,3,4-thiadiazol-2-yl)benzyl)ethanethioate]
> 30 µM	< 1 µM	>100	Cc1cccc(-c2cccc(-c3nnc(Nc4ccc5[nH]ncc5c4Cl)s3)c2)n1 [Example 75R]
> 30 µM	< 1 µM	>5	Nc1cccc(-c2nnc(Nc3ccc4[nH]ncc4c3)s2)n1.O=C(O)C(F)(F)F [Example 35CR]
15 to 30 µM	15 to 30 µM		COc1cccc(-c2nnc(N(CCO)c3ccc4[nH]ncc4c3)s2)c1 [Example 54E]
< 1 µM	< 1 µM	>5	CC(C)n1ccnc1-c1cccc(-c2nnc(Nc3ccc4[nH]ncc4c3Cl)s2)c1.O=C(O)C(F)(F)F [Example 46A]
> 30 µM	< 1 µM	>100	CCOc1ccc(CC(=O)Nc2cccc(-c3nnc(Nc4ccc5[nH]ncc5c4Cl)s3)c2)cc1 [Example 35BE]
1 to 15 µM	< 1 µM	>5	NCc1cncc(C(=O)Nc2cccc(-c3nnc(Nc4ccc5[nH]ncc5c4)s3)c2)c1.O=C(O)C(F)(F)F [Example 35CF]
	1 to 15 µM		CCOC(=O)N(c1nnc(-c2cccc(NC(=O)Cc3ccc(F)cc3)c2)s1)c1ccc2[nH]ncc2c1Cl [Example 54A]
	1 to 15 µM		Clc1c(Nc2nnc(-c3cccc4c3ncn4CCN3CCCC3)s2)ccc2[nH]ncc12 [Example 56A]
1 to 15 µM			O=C(Nc1cccc(-c2nnc(Nc3ccc4[nH]ncc4c3Cl)s2)c1)C1CCNCC1 [Example 35AC]
1 to 15 µM			CN1CC(C(=O)Nc2cccc(-c3nnc(Nc4ccc5[nH]ncc5c4Cl)s3)c2)C1 [Example 35X]
1 to 15 µM			CC1(C(=O)Nc2cccc(-c3nnc(Nc4ccc5[nH]ncc5c4Cl)s3)c2)CCCCC1 [Example 35L]
